Values after ≈ are worked out from the molar mass of the structure shown.
Key:
Test in all cases: Antibacterial assay, microtitration MIC (Test A)
Format in all cases: cell-based
M. catarrhalis BC-3531 = details: strain BC-3531; for MIC: Moraxella catarrhalis, BC3531, Gram Negative Bacteria, read-out: Minimum Inhibitory Concentrations M. catarrhalis BC-3531
Method: (§1) The compounds of the present invention were tested against an assortment of Gram-negative and Gram-positive organisms using standard microtitration techniques (Cohen et. al., Antimicrob., 1985;28:766; Heifetz, et. al., Antimicrob., 1974;6:124). The results of the evaluation are shown in Tables 1A and B, wherein “-” means no data.

H. influenzae HI-3542 = details: strain HI-3542; for MIC: Haemophilus influenzae, HI3542, Gram Negative Bacteria, read-out: Minimum Inhibitory Concentrations H. influenzae HI-3542
Method: as §1

E. coli EC-2549 = details: strain EC-2549; for MIC: Escherichia coli, EC2549, Gram Negative Bacteria, read-out: Minimum Inhibitory Concentrations E. coli EC-2549
Method: as §1

Row | SMILES | MIC (M. catarrhalis BC-3531) | MIC (H. influenzae HI-3542) | MIC (E. coli EC-2549) | Minimum Inhibitory Concentrations M. catarrhalis BC-3531 (M. catarrhalis BC-3531; Gram Negative Bacteria) | Minimum Inhibitory Concentrations H. influenzae HI-3542 (H. influenzae HI-3542; Gram Negative Bacteria) | Minimum Inhibitory Concentrations E. coli EC-2549 (E. coli EC-2549; Gram Negative Bacteria)
1 | COc1c(N2CCC(C3(O)CC3)C2)c(F)cc2c(=O)c(C(=O)O)cn(C3CC3)c12 (stereo not drawn) [drawing 327] | 0.03 mg/L (≈ 0.0745 µM) | 0.03 mg/L (≈ 0.0745 µM) | 0.25 mg/L (≈ 0.621 µM) | – | – | –
2 | Nc1nc(-n2cc(C(=O)O)c(=O)c3cc(F)c(N4CCC(C(O)CO)C4)c(Cl)c32)c(F)cc1F (stereo not drawn) [drawing 326] | 0.125 mg/L (≈ 0.251 µM) | 0.008 mg/L (≈ 0.016 µM) | 0.25 mg/L (≈ 0.501 µM) | – | – | –
3 | CCC(=O)OC[C@@H]1CN(c2c(F)cc3c(=O)c(C(=O)O)cn(C4CC4)c3c2C)C[C@@H]1COC(=O)CC [drawing 393] | 0.03 mg/L (≈ 0.0597 µM) | 0.5 mg/L (≈ 0.995 µM) | 1 mg/L (≈ 1.99 µM) | – | – | –
4 | COC[C@@H]1CN(c2c(F)cc3c(=O)c(C(=O)O)cn(C4CC4)c3c2C)C[C@@H]1COC [drawing 388] | 0.125 mg/L (≈ 0.299 µM) | 0.25 mg/L (≈ 0.597 µM) | 2 mg/L (≈ 4.78 µM) | – | – | –
5 | O=C(O)c1cn(C2CC2)c2c(OC(F)F)c(N3CC4CC(O)C(O)C4C3)c(F)cc2c1=O (stereo not drawn) [drawing 448] | 0.06 mg/L (≈ 0.132 µM) | 0.03 mg/L (≈ 0.066 µM) | 0.5 mg/L (≈ 1.1 µM) | – | – | –
6 | Cc1c(N2CC(C)(CO)C(C)(CO)C2)c(F)cc2c(=O)c(C(=O)O)cn(C3CC3)c12 (stereo not drawn) [drawing 437] | – | – | – | 0.06 µg/mL | 0.06 µg/mL | 0.5 µg/mL
7 | COc1c(N2CCC(C)(C(O)CC(F)(F)F)C2)c(F)cc2c(=O)c(C(=O)O)cn(C3CC3)c12 (stereo not drawn) [drawing 374] | 0.03 mg/L (≈ 0.0635 µM) | 0.03 mg/L (≈ 0.0635 µM) | 0.125 mg/L (≈ 0.265 µM) | – | – | –
8 | Cc1c(N2C[C@@H](CCO)[C@@H](CCO)C2)c(F)cc2c(=O)c(C(=O)O)cn(C3CC3)c12 [drawing 395] | 0.06 mg/L (≈ 0.143 µM) | 0.015 mg/L (≈ 0.0358 µM) | 0.125 mg/L (≈ 0.299 µM) | – | – | –
9 | Cc1c(N2C[C@@H](COC(=O)C(C)C)[C@@H](COC(=O)C(C)C)C2)c(F)cc2c(=O)c(C(=O)O)cn(C3CC3)c12 [drawing 394] | 2 mg/L (≈ 3.77 µM) | 2 mg/L (≈ 3.77 µM) | 8 mg/L (≈ 15.1 µM) | – | – | –
10 | COc1c(N2CCC(C(CO)CO)C2)c(F)cc2c(=O)c(C(=O)O)cn(C3CC3)c12 (stereo not drawn) [drawing 307] | 0.015 mg/L (≈ 0.0357 µM) | 0.008 mg/L (≈ 0.019 µM) | 0.06 mg/L (≈ 0.143 µM) | – | – | –
11 | CC(=O)OC[C@@H]1CN(c2c(F)cc3c(=O)c(C(=O)O)cn(C4CC4)c3c2C)C[C@@H]1COC(C)=O [drawing 392] | 0.06 mg/L (≈ 0.126 µM) | 0.125 mg/L (≈ 0.263 µM) | 0.5 mg/L (≈ 1.05 µM) | – | – | –
12 | COc1c(N2C[C@]3(CO)CCC[C@]3(CO)C2)c(F)cc2c(=O)c(C(=O)O)cn(C3CC3)c12 [drawing 451] | 0.25 mg/L (≈ 0.56 µM) | 0.125 mg/L (≈ 0.28 µM) | 2 mg/L (≈ 4.48 µM) | – | – | –
13 | Nc1nc(-n2cc(C(=O)O)c(=O)c3cc(F)c(N4CCC(C(O)C(F)F)C4)c(Cl)c32)c(F)cc1F (stereo not drawn) [drawing 313] | 0.015 mg/L (≈ 0.0289 µM) | 0.008 mg/L (≈ 0.0154 µM) | 0.25 mg/L (≈ 0.482 µM) | – | – | –
14 | COc1c(N2CCC(C(O)C(F)F)C2)c(F)cc2c(=O)c(C(=O)O)cn(C3CC3)c12 (stereo not drawn) [drawing 311] | 0.03 mg/L (≈ 0.0704 µM) | 0.015 mg/L (≈ 0.0352 µM) | 0.125 mg/L (≈ 0.293 µM) | – | – | –
15 | O=C(O)c1cn(C2CC2)c2c(Cl)c(N3CCC(C(O)C4(CO)CC4)C3)c(F)cc2c1=O (stereo not drawn) [drawing 321] | 0.016 mg/L (≈ 0.0355 µM) | 0.008 mg/L (≈ 0.0177 µM) | 0.06 mg/L (≈ 0.133 µM) | – | – | –
16 | O=C(O)c1cn(C2CC2)c2c(Cl)c(N3CCC(C(O)CO)C3)c(F)cc2c1=O (stereo not drawn) [drawing 324] | 0.016 mg/L (≈ 0.0389 µM) | 0.004 mg/L (≈ 0.00974 µM) | 0.06 mg/L (≈ 0.146 µM) | – | – | –
17 | COCCOCC(O)C1CN(c2c(F)cc3c(=O)c(C(=O)O)cn(C4CC4)c3c2C)CC1(C)C (stereo not drawn) [drawing 424] | 0.25 mg/L (≈ 0.525 µM) | 0.5 mg/L (≈ 1.05 µM) | 2 mg/L (≈ 4.2 µM) | – | – | –

The next lines start with results.

Row | MIC (M. catarrhalis BC-3531) | MIC (H. influenzae HI-3542) | MIC (E. coli EC-2549) | SMILES | Minimum Inhibitory Concentrations M. catarrhalis BC-3531 (M. catarrhalis BC-3531; Gram Negative Bacteria) | Minimum Inhibitory Concentrations H. influenzae HI-3542 (H. influenzae HI-3542; Gram Negative Bacteria) | Minimum Inhibitory Concentrations E. coli EC-2549 (E. coli EC-2549; Gram Negative Bacteria)
18 | 0.008 mg/L (≈ 0.0206 µM) | 0.015 mg/L (≈ 0.0386 µM) | 0.06 mg/L (≈ 0.154 µM) | Cc1c(N2CC(CO)C(C)(C)C2)c(F)cc2c(=O)c(C(=O)O)cn(C3CC3)c12 (stereo not drawn) [drawing 418] | – | – | –
19 | 0.015 mg/L (≈ 0.0369 µM) | 0.004 mg/L (≈ 0.00984 µM) | 0.125 mg/L (≈ 0.308 µM) | COc1c(N2C[C@@H](CO)[C@@H](CO)C2)c(F)cc2c(=O)c(C(=O)O)cn(C3CC3)c12 [drawing 384] | – | – | –
20 | 0.008 mg/L (≈ 0.0179 µM) | 0.004 mg/L (≈ 0.00894 µM) | 0.06 mg/L (≈ 0.134 µM) | Nc1c(F)c(N2CCC(C(O)C(F)(F)F)C2)c(F)c2c1c(=O)c(C(=O)O)cn2C1CC1 (stereo not drawn) [drawing 332] | – | – | –
21 | 0.008 mg/L (≈ 0.0207 µM) | 0.015 mg/L (≈ 0.0388 µM) | 0.125 mg/L (≈ 0.323 µM) | Cc1c(N2CC(CO)C3(CC3)C2)c(F)cc2c(=O)c(C(=O)O)cn(C3CC3)c12 (stereo not drawn) [drawing 419] | – | – | –
22 | 0.004 mg/L (≈ 0.0106 µM) | 0.002 mg/L (≈ 0.00531 µM) | 0.03 mg/L (≈ 0.0797 µM) | COc1c(N2CCC(CO)C2)c(F)cc2c(=O)c(C(=O)O)cn(C3CC3)c12 (stereo not drawn) [drawing 309] | – | – | –
23 | 0.008 mg/L (≈ 0.0186 µM) | 0.004 mg/L (≈ 0.00928 µM) | 0.06 mg/L (≈ 0.139 µM) | O=C(O)c1cn(C2CC2)c2c(Cl)c(N3CCC(C(O)C(F)F)C3)c(F)cc2c1=O (stereo not drawn) [drawing 312] | – | – | –
24 | 0.008 mg/L (≈ 0.0197 µM) | 0.004 mg/L (≈ 0.00983 µM) | 0.06 mg/L (≈ 0.147 µM) | O=C(O)c1cn(C2CC2)c2c(Cl)c(N3CC(CO)C4(CC4)C3)c(F)cc2c1=O (stereo not drawn) [drawing 421] | – | – | –
